# Patent publication US10842892B2, “Methods and apparatus for synthesizing imaging agents, and intermediates thereof” (Lantheus Medical Imaging, Inc., priority 2010, dated 2020)
# What was measured:
# [1] = tested on: blood brain barrier (BBB); assay: brain uptake with and without blood brain barrier disruption; assay type: in vivo, rat
# Protocol: Male Sprague-Dawley rats were anesthetized with sodium pentobarbital and the left external carotid artery was cannulated close to the internal and external carotid bifurcation. Using saline as control and 25% D-mannitol as hypertonic solution, each were perfused retrogradely in six animals (0.3 mL/kg/sec) for 30 seconds. Two minutes later, ˜1 mCi imaging agent 1 was injected via tail vein and the brain was imaged with a microPET camera for 30 minutes. […] Following completion of imaging, the brain was harvested, photographed and dissected into left and right hemispheres and cerebellum. The tissue content of imaging agent 1 radioactivity was measured by gamma counter and Evans blue levels were determined by fluorescence method for calculation of the % injected dose/gram tissue and μg Evan blue/gram tissue, respectively.
# myocardial ischemia = assay: imaging agent 1 and ^82Rb PET versus ^99mTc sestamibi SPECT, perfusion defect assessment (phase II); assay type: in vivo, human
# Protocol: Twenty-six patients (20 men) who underwent ^99mTc sestamibi SPECT and imaging agent 1 PET within 6 months at a single center in a phase II clinical trial were compared to 23 patients (matched by summed difference score (SDS) on SPECT) who underwent ^99mTc sestamibi SPECT and ^82Rb PET (25-50 mCi) within 6 months without change in clinical state. PET was performed with imaging agent 1 at rest (2.3-3.9 mCi) followed 60 min or 24 h later with exercise or adenosine stress (7.3-8.6 mCi). Perfusion defects on SPECT and PET were assessed by computer-assisted visual interpretation, using the standard 17 segment, 5 point-scoring model (0=normal; 4=absent uptake). The extent and severity of ischemia (SDS) was derived from the difference between summed stress score (SSS) and summed rest scores (SRS).
# Twenty six patients (20 men) underwent SPECT and PET within 6-months. PET was performed with imaging agent 1 at rest (2.3-3.9 mCi) followed 60 min (n=18) or 24 h (n=8) later with exercise (n=16) or adenosine (n=10) stress (7.3-8.6 mCi). Image quality of SPECT and PET was consensually assessed by 2 independent blinded readers and graded as excellent, good, or fair. Stress and rest perfusion defects on SPECT and PET were assessed by the same readers by computer-assisted visual interpretation, using the standard 17 segment, 5 point-scoring model (0=normal; 4=absent uptake). The extent and severity of ischemia (summed difference score (SDS)) was derived from the difference between summed stress (SSS) and summed rest scores (SRS). Image quality with PET was excellent in 24 and good in 2 patients. In contrast, there were 7 excellent, 18 good, and 1 fair quality study, p<0.001 by SPECT. In 14 patients with abnormal SPECT (SSS≥4), mean SDS was greater with PET than with SPECT (9.6±1.8 vs. 5.4±0.7, p=0.02). In all 12 patients with normal SPECT (SSS<4), SDS was zero by PET and SPECT.
# [2] = tested on: stress induced myocardial perfusion abnormalities; assay: rest-stress imaging agent 1 PET versus Tc-99m Sestamibi SPECT MPI, single center; assay type: in vivo, human; conditions: myocardial segments supplied by diseased coronary arteries, 13 patients
# Protocol: Thirteen patients, from a single center, underwent rest-stress Tc-99m Sestamibi SPECT MPI, rest-stress imaging agent 1 PET MPI and coronary angiography. In each patient, 17 myocardial segments were visually scored for rest and stress images by independent observers who were blinded to all other results. For each patient, summed stress scores (SSS), summed rest scores (SRS), and summed difference scores (SDS) were determined from segmental scores. Percent narrowing in each coronary artery was evaluated blindly and 70% luminal diameter narrowing was considered significant.
# [3] = 25% D-mannitol compared to saline control
# [4] = matched group of 13 patients with abnormal SPECT (^82Rb PET group)
"increase in uptake, cerebellum [1, 3]","increase in uptake, left hemisphere [1, 3]","increase in uptake, right hemisphere [1, 3]","Brain uptake, cerebellum ([1]; BBBD (25% D-mannitol) rats)","Brain uptake, left hemisphere ([1]; BBBD (25% D-mannitol) rats)","Brain uptake, right hemisphere ([1]; BBBD (25% D-mannitol) rats)","Brain uptake, cerebellum ([1]; control (saline) rats)","Brain uptake, left hemisphere ([1]; control (saline) rats)","Brain uptake, right hemisphere ([1]; control (saline) rats)",SMILES,mean SDS (summed difference score) (myocardial ischemia; [4]),"differences in SDS, PET compared to SPECT (myocardial ischemia; patients with normal SPECT (SSS<4))",SDS [2],SRS [2],SSS [2],SDS (myocardial ischemia; 12 patients with normal SPECT (SSS<4)),mean SDS (summed difference score) (myocardial ischemia; 14 patients with abnormal SPECT (SSS≥4)),"image quality excellent, number of patients (myocardial ischemia; 26 patients, 2 blinded readers)","image quality fair, number of patients (myocardial ischemia; 26 patients, 2 blinded readers)","image quality good, number of patients (myocardial ischemia; 26 patients, 2 blinded readers)"
186%,633%,216%,83 ± 12 µg/g,154 ± 13 µg/g,60 ± 8 µg/g,29 ± 4 µg/g,21 ± 2 µg/g,19 ± 2 µg/g,Cc1cc(-c2ccc(/N=N/c3ccc4c(S(=O)(=O)O)cc(S(=O)(=O)O)c(N)c4c3O)c(C)c2)ccc1/N=N/c1ccc2c(S(=O)(=O)O)cc(S(=O)(=O)O)c(N)c2c1O [Evans blue],–,–,–,–,–,–,–,–,–,–
–,–,–,–,–,–,–,–,–,"[82Rb+].[Cl-] [^82Rb, rubidium-82 (^82Rb) chloride]",4.9±1.4,no differences,–,–,–,–,–,–,–,–
–,–,–,–,–,–,–,–,–,[C-]#[N+]CC(C)(C)OC.[C-]#[N+]CC(C)(C)OC.[C-]#[N+]CC(C)(C)OC.[C-]#[N+]CC(C)(C)OC.[C-]#[N+]CC(C)(C)OC.[C-]#[N+]CC(C)(C)OC.[Tc] [^99mTc sestamibi],4.6±1.3,–,5.4 ± 4.2,3.1 ± 3.3,8.6 ± 5.8,zero,5.4±0.7,7,1,18
